Experimental data from ChEMBL document CHEMBL1201862, “PubChem BioAssay data set” (2004).
The source made the active and inactive calls.

Experiments:
[1] = CMV-driven luciferase expression suppression in HEK293 – cell-based, luminescence, dry powder, counter-screen for Pax8 inhibitor project, dose response (AID 743020); format: functional
[2] = biological target: Paired box protein Pax-8 (Homo sapiens, UniProt Q06710); assay: PAX8 transcriptional activity inhibition in RMG-I – RMG-I cells, luciferase, cherry-pick, dose response (AID 687027); format: functional, cell-based;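 note: luciferase reporter driven by Pax8 target thyroperoxidase promoter measured by SteadyGlo luminescence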
[3] = system: HeLa; assay: Cytotoxicity counterscreen assay for transcriptional activators of heat shock protein 70 (Hsp70). [Related pubchem assays: 1203, 1252 ]; format: functional; settings: Homo sapiens;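 note: cells exposed to compound for 16 hours before readout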
[4] = biological target: T1, Estrogen receptor beta (Homo sapiens, UniProt Q92731); assay: blockers of SRC-3 recruitment to ERβ – biochemical, ELISA, streptavidin-HRP readout, orthogonal assay, confirmation (AID 1060)
[5] = biological target: T1, Estrogen receptor beta
[6] = biological target: T2, Estrogen receptor (Homo sapiens, UniProt P03372);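 note: potency for inhibiting coactivator peptide recruitment to the receptor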
T2 sequence (P03372 whole entry): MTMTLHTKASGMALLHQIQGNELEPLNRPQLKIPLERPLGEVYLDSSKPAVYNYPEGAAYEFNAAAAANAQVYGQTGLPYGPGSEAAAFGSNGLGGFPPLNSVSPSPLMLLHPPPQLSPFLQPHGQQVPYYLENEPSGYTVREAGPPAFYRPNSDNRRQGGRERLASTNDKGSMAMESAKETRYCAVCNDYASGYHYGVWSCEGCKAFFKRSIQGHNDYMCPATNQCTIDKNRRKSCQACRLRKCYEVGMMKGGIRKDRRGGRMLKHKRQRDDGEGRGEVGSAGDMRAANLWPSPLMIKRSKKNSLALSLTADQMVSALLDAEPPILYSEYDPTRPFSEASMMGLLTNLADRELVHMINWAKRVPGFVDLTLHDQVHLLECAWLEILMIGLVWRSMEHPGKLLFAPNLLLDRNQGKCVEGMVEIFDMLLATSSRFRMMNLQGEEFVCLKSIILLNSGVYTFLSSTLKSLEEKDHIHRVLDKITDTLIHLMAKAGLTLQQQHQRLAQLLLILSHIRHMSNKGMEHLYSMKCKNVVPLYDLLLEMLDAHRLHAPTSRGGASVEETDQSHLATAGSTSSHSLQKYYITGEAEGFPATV

[7] = biological target: Ion channel NompC (Danio rerio, UniProt Q7T1G6); assay: Fluorescence counterscreen assay for TRPML3 agonists: dose response cell-based high-throughput screening assay to identify agonists of the transient receptor potential channel N1 (TRPN1). [Related pubchem assays: 1526, 1424, 1448 ]; format: functional
[8] = biological target: Mucolipin-3 (Homo sapiens, UniProt Q8TDD5); assay: Dose response cell-based high-throughput screening assay for agonists of the transient receptor potential channel ML3 (TRPML3). [Related pubchem assays: 1526, 1424, 1448 ]; format: functional
[9] = A High Throughput Confirmatory Assay used to Identify Novel Compounds that Inhibit Mycobacterium Tuberculosis in the absence of Glycerol.; format: functional
[10] = Luminescence Cell-Based Dose Response HTS to Identify Inhibitors of 5'UTR Stem-Loop Driven Prion Protein mRNA Translation in H4 Neuroglioblastoma Cells. [Related pubchem assays: 1827 (Project Summary), 1813 (Primary HTS)]; format: functional
[11] = alpha-synuclein stem-loop translation blockers – luminescence, H4 neuroglioblastoma cells, dose confirmation, confirmation (AID 2454); format: functional, cell-based;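 note: H4 neuroglioblastoma cells carrying an alpha-synuclein 5'UTR luciferase reporter; potency for inhibition of the luciferase signal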
[12] = alpha-synuclein stem-loop luciferase translation blockers – H4 neuroglioma cells, luminescence, confirmation (AID 1988); format: functional, cell-based
[13] = luciferase reporter signal reduction – luminescence, H4-C neuroglioblastoma cells, dose response (AID 2458); format: functional, cell-based;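 note: H4 neuroglioblastoma cells stably carrying a luciferase reporter gene fusion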
[14] = luciferase reporter signal suppression in cells – H4 neuroglioma cells, luminescence, dose response (AID 1990); format: functional, cell-based
[15] = cells; format: functional, cell-based
[16] = biological target: Photoreceptor-specific nuclear receptor (Homo sapiens, UniProt Q9Y5X4); format: functional, cell-based;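 note: CHO-S cells with Gal4-NCOR and VP16-NR2E3 two-hybrid luciferase reporter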
[17] = biological target: Lytic switch protein BZLF1 (Epstein-Barr virus (strain B95-8) (HHV-4) (Human herpesvirus 4), UniProt P03206); assay: inhibition of BZLF1 ZTA DNA binding – biochemical, fluorescence polarization, Epstein-Barr virus, 1536-well, counter-screen for EBNA-1 inhibitor project, dose response (AID 2377); design: species or system human gammaherpesvirus 4;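 note: fluorescence polarization of Cy5-labelled ZRE DNA probe bound by purified Zta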
[18] = biological target: Epstein-Barr nuclear antigen 1 (Epstein-Barr virus (strain B95-8) (HHV-4) (Human herpesvirus 4), UniProt P03211); assay: inhibition of EBV nuclear antigen 1 DNA binding – biochemical, fluorescence polarization, 1536-well, dose response (AID 2381); design: species or system human gammaherpesvirus 4;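 note: fluorescence polarization of a Cy5 DNA probe bound by EBNA-1 protein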
Sequence of Epstein-Barr nuclear antigen 1 (P03211 whole entry): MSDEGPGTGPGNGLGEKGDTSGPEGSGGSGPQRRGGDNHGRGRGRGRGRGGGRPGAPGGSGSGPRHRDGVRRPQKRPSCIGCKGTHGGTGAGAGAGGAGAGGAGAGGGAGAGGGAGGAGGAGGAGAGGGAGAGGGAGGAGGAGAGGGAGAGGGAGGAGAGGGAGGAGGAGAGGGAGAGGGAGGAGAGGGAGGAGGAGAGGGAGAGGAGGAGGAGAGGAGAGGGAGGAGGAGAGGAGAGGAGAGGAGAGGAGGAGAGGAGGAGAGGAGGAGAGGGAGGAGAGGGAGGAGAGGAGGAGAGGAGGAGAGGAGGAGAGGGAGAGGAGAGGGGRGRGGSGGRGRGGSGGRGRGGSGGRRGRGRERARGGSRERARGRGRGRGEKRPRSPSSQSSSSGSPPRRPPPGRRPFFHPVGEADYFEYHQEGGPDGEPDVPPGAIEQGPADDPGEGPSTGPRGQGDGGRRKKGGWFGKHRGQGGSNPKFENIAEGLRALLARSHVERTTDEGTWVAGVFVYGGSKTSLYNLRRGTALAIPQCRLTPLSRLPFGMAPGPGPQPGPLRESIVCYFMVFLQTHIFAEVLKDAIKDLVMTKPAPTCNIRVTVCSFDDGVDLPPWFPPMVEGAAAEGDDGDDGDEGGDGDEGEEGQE

T1 sequence (Q92731 whole entry): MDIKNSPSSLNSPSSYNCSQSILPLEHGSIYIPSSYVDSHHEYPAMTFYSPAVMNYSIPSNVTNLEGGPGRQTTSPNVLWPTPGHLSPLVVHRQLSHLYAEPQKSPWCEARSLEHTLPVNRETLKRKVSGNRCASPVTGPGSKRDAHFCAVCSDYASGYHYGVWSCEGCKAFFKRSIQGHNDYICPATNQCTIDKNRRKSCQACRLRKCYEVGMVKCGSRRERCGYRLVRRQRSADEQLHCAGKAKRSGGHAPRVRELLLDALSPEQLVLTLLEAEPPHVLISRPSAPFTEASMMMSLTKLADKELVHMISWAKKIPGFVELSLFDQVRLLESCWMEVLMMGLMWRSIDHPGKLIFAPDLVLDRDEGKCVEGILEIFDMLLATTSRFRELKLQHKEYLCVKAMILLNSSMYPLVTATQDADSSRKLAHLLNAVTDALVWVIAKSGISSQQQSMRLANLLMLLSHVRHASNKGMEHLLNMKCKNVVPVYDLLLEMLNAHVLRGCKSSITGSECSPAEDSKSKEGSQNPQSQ
Sequence of Lytic switch protein BZLF1 (P03206 whole entry): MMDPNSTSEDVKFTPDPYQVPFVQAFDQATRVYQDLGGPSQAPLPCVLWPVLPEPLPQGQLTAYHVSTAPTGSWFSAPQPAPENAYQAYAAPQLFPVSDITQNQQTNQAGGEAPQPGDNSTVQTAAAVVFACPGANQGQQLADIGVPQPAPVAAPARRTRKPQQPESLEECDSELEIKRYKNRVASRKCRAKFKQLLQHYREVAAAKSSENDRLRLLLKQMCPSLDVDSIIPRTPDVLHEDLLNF
Sequence of Paired box protein Pax-8 (Q06710 whole entry): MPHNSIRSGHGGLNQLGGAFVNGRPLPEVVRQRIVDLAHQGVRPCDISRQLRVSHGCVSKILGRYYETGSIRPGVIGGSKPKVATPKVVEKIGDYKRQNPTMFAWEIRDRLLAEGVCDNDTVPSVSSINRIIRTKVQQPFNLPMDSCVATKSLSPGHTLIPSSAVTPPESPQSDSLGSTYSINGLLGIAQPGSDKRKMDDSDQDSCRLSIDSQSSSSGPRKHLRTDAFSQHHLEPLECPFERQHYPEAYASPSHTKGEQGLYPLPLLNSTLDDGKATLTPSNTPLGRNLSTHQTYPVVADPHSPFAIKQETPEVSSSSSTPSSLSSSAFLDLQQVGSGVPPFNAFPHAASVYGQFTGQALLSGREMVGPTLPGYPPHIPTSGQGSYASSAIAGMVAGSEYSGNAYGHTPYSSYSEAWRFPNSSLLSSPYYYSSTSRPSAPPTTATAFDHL
Sequence of Photoreceptor-specific nuclear receptor (Q9Y5X4 whole entry, the tested form may be a part): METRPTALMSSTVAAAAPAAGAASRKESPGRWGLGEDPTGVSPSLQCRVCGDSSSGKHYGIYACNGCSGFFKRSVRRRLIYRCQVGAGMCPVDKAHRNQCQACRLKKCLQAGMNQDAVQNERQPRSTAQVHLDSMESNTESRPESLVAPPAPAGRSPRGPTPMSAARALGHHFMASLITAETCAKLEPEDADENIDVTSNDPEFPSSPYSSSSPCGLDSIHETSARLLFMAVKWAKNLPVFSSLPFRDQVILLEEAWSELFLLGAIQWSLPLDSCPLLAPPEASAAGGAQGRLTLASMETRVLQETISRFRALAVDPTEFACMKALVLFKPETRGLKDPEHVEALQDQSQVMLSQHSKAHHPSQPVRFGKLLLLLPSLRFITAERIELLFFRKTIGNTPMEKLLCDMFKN
Sequence of Ion channel NompC (Q7T1G6 whole entry): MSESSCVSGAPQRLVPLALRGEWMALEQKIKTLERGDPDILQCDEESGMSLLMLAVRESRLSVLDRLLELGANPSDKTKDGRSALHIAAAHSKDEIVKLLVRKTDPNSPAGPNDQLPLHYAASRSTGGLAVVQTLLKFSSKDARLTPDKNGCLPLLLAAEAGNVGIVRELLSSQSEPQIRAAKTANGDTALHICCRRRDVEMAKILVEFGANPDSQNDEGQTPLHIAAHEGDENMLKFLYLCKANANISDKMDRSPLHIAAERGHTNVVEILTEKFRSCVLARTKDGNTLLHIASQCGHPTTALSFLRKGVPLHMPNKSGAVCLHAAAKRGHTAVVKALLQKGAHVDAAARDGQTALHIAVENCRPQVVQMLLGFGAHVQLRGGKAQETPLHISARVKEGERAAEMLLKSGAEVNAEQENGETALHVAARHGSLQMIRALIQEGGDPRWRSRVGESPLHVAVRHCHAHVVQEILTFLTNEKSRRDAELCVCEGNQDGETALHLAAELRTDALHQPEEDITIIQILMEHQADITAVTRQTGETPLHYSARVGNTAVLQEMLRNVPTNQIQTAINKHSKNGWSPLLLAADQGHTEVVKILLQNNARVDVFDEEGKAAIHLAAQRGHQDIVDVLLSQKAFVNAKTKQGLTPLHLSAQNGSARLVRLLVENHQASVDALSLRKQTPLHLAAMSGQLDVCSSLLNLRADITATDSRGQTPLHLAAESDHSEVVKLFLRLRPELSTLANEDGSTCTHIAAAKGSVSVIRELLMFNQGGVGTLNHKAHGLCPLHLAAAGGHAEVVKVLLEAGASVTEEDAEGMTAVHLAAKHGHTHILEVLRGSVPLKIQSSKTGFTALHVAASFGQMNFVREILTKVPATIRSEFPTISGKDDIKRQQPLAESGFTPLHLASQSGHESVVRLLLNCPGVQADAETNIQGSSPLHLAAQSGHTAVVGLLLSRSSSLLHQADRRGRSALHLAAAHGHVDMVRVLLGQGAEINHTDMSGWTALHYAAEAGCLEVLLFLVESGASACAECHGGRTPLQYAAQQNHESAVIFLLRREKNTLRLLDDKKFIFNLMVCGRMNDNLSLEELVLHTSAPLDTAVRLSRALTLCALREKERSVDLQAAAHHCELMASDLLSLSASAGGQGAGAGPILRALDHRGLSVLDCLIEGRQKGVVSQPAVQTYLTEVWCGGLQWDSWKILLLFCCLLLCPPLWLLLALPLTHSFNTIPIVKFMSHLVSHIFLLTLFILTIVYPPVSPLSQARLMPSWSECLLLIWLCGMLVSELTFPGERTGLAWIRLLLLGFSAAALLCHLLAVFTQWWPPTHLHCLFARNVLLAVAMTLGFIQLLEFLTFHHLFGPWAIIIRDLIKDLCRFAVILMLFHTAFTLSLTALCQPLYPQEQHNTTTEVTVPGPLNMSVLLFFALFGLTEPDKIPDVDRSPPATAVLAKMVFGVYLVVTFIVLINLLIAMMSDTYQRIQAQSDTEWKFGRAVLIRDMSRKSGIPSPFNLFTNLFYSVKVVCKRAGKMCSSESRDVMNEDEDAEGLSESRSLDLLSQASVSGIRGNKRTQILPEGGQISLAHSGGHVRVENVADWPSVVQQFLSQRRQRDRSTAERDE
Sequence of Mucolipin-3 (Q8TDD5 whole entry): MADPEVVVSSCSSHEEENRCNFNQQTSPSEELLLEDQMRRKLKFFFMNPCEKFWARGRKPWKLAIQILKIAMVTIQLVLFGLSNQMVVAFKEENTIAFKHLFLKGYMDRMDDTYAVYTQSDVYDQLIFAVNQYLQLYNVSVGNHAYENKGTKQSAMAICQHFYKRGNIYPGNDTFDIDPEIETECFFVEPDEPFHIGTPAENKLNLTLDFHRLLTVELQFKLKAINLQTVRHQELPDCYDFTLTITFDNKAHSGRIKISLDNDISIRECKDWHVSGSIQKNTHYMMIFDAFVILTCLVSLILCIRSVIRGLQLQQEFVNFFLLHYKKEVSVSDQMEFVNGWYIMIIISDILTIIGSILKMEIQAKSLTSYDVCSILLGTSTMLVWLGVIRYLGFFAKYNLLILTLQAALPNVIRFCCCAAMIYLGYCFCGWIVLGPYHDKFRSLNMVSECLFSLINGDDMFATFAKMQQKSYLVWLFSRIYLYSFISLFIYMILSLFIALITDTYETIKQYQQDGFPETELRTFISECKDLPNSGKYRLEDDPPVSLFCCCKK

For `CCCC(=O)N1CCN(c2ccc(NC(=O)c3ccc([N+](=O)[O-])o3)cc2)CC1`, the AC50 [1] was 19.9 µM (active), the AC50 [2] was 5.17 µM (active) and the CC50 [3] was 6.29 µM (active).

In the case of `Cc1cc(C)c(S(=O)(=O)/N=C2\C=CC(=O)C(Cl)=C2)c(C)c1`, the IC50 [4] is reported as 16.5 µM (not active), the IC50 [5] is reported as 4.69 µM (active) and the IC50 [6] is reported as 10.3 µM (active).

With `CN(C1CCCCC1)S(=O)(=O)c1cccc(C(=O)OCC(=O)NC2CCCc3ccccc32)c1` (stereo not drawn) the EC50 [7] was > 29.9 µM (not active) and the EC50 [8] was 2.86 µM (active).

In the case of `O=C(CCN1C(=O)/C(=C/c2ccccc2)SC1=S)Nc1ccccn1`, the IC50 [9] is reported as > 100 µM (active).

With `Cc1ccsc1C(=O)OCC(=O)c1cc(C)n(CC2CCCO2)c1C` (stereo not drawn) the EC50 [10] was 0.325 µM (active), the EC50 [11] was 0.322 µM (active) and the EC50 [12] was < 0.1 µM (active). The EC50 [13] was 0.9 µM (active), the EC50 [14] was 8.04 µM (active) and the EC50 [15] was 3.3 µM (active). For the same compound, the IC50 [16] was 6.9 µM (active).

In the case of `COc1ccc(CN=C(S)N2CCN(S(=O)(=O)c3cccc(F)c3)CC2)cc1`, the IC50 [17] is reported as > 111 µM (not active) and the IC50 [18] is reported as 5.94 µM (active).
